# Assay results as given in paper PMC10368966, “Safety and efficacy of AK0529 in respiratory syncytial virus‐infected infant patients: A phase 2 proof‐of‐concept trial” (Influenza and Other Respiratory Viruses, 2023).
# Several values for one entry are separate records, joined by “and”; a condition that tells them apart may be missing. Equal entries are not always repeated. Entries after “also recorded” stand apart in the source; their conditions may differ. Marks after values point to notes of the source that are not given here.
# What was measured:
# [1] = test system: laboratory strains of RSV-A and RSV-B; assay: Cytopathic effect (CPE) assay using Hep-2 cells; assay type: cell-based, human RSV; details: human respiratory syncytial virus
# Experimental: (§1) The EC90 value was determined in the presence of the known plasma protein binding in the CPE assay. […] To achieve a target efficacious concentration in humans, it was expected that a minimum target of 5 × EC90 value, or approximately 40 ng/mL should be attained. To maintain the effectiveness, this target Ctrough level was required to be achieved across the dosing interval.
# [2] = parameters: method as in Study AK0529-1001; details: single doses of 100 mg and above ref Study AK0529-1001; cited from earlier work
# [3] = parameters: method as in Supporting Information; details: multiple doses up to 300 mg bid ref Supporting Information; cited from earlier work
# [4] = test system: RSV; assay: Phase 2 study: RSV viral load by quantitative reverse-transcription PCR on nasopharyngeal swab or aspirate; assay type: in vivo, human (infants); details: for greater reduction in median viral load than placebo: Part 2, 2 mg/kg bid, not statistically significant
# Excerpt: This was a double‐blind, placebo‐controlled, randomized, multicenter study with the primary objective to evaluate the safety and tolerability of single and multiple oral doses of AK0529. Secondary objectives were to evaluate the effect of AK0529 on Wang Respiratory Score, to determine the effects of treatment on viral load, and to characterize the pharmacokinetics (PK) of single and multiple AK0529 doses.
# The study consisted of two parts. In both parts, subjects were randomized in a 2:1 ratio to receive active treatment or placebo. Subjects were stratified by age (6 to 24 months in Cohorts 1 and 3, and 1 to <6 months in Cohorts 2 and 4).
# Part 1 was a single‐dose study with a 7‐day follow‐up. The doses administered to patients in Cohort 1 included 4, 2, and 1 mg/kg. The Safety Review Committee (SRC) reviewed PK and safety data after each of the sets of three patients, before further enrollment of subjects, and recommended 0.5 and 1 mg/kg as the doses for patients in Cohort 2.
# In Part 2, subjects received AK0529 or placebo over 5 days and were followed until day 14 post‐initial dose. The doses in Cohort 3 included 1 and 0.5 mg/kg bid. In Cohort 4, the doses included 2, 1 and 0.5 mg/kg bid.
# [5] = Phase 2 study: AST and ALT shift evaluation; assay type: in vivo, human (infants)
# Experimental: (§2) Safety and tolerability was evaluated by clinical assessment of safety data, including laboratory data, electrocardiographic data, vital signs, and adverse events (AEs).
# In study Part 1, no formal sample size calculation was performed. For Part 2, it was calculated that a sample size of 16 patients in each active treatment group would provide >90% power to detect a 50% reduction (mean ratio of 0.5) in RSV viral load AUC with AK0529 as compared with placebo, using a one‐sided significance level of 0.05, two‐sample equal variance t‐test, and assuming a 0.3 variation coefficient of the placebo for viral load. These assumptions were based on viral challenge models of early treatment in adults.[3] For the transaminase shift analysis, the Chi‐square test and Fisher's exact test were used, as appropriate, to test for differences between active treatment and placebo.
# [6] = test system: clinical RSV isolates (31 A-subtypes and 29 B-subtypes); assay: Cytopathic and plaque reduction assays against clinical RSV isolates; assay type: cell-based
# Experimental: AK0529 (ziresovir) is a potent, selective, and orally bioavailable RSV F protein inhibitor.[9]
# as §1
# [7] = test system: clinical RSV isolates (31 A-subtypes and 29 B-subtypes); parameters: method as in PMID 31194544; details: all clinical RSV isolates (31 A-subtypes and 29 B-subtypes) ref 9; cited from earlier work
# [8] = Phase 2 study: safety and tolerability (adverse events); assay type: in vivo, human (infants)
# Experimental: as §2
# Clinical safety and tolerability were assessed on the safety population, comprising all subjects who received ≥1 dose of study drug. Clinical variables were evaluated in the full analysis population, which included all subjects who received a dose of study drug and for whom ≥1 post‐treatment assessment was available. Pharmacokinetic analysis was performed on those subjects in the safety population for whom both pre‐ and post‐dose samples were available.
# [9] = AK0529 n = 38, worst shift category
# [10] = AK0529 n = 39, worst shift category
# [11] = TEAE, preferred term, AK0529 N=49
# [12] = TEAE, system organ class, AK0529 N=49
smiles,measurement,setting,value
"Cc1ccc2nc(N3CCS(=O)(=O)c4ccccc4C3)nc(NCC3(N)COC3)c2c1 [AK0529, ziresovir]",minimum target trough concentration (5 × EC90),"[1]; HEp-2, target Ctrough in humans, read-out: 5 × EC90 value (minimum target efficacious concentration)",0.04 µg/mL
same,EC90,"[1]; Hep-2 cells, CPE assay, read-out: EC90 of the RSV-induced reduction of cell viability (average)",5 nM and 0.0022 µg/mL
same,mean plasma concentration levels at 12 hours post-dose,[2],> 50 ng/mL
same,tolerability,[3],good tolerability
same,reductions in viral load relative to placebo,"[4]; Part 1, 24 h after a single dose",< 1 log10 PFUe/mL
same,greater reduction in median viral load than placebo,[4]; 72 h,1.25 log10 PFUe/mL
same,greater reduction in median viral load than placebo,[4]; 96 h post-dose,1.73 log10 PFUe/mL
same,ALT shift: Abnormal CS to abnormal NCS,[5]; AK0529 n = 38,0 n (%)
same,ALT shift: Abnormal CS to normal,[5]; AK0529 n = 38,0 n (%)
same,ALT shift: Abnormal NCS to normal,[5]; AK0529 n = 38,1 (2.6%) n (%)
same,ALT shift: No change,[5]; AK0529 n = 38,34 (89.5%) n (%)
same,ALT shift: Abnormal NCS to abnormal CS,[5]; [9],1 (2.6%) n (%)
same,ALT shift: Normal to abnormal CS,[5]; [9],1 (2.6%) n (%)
same,ALT shift: Normal to abnormal NCS,[5]; [9],1 (2.6%) n (%)
same,AST shift: Abnormal CS to abnormal NCS,[5]; AK0529 n = 39,1 (2.6%) n (%)
same,AST shift: Abnormal CS to normal,[5]; AK0529 n = 39,1 (2.6%) n (%)
same,AST shift: Abnormal NCS to normal,[5]; AK0529 n = 39,2 (5.1%) n (%)
same,AST shift: No change,[5]; AK0529 n = 39,29 (74.4%) n (%)
same,AST shift: Abnormal NCS to abnormal CS,[5]; [10],0 n (%)
same,AST shift: Normal to abnormal CS,[5]; [10],2 (5.1%) n (%)
same,AST shift: Normal to abnormal NCS,[5]; [10],4 (10.3%) n (%)
same,"association between exposure to active drug and deterioration / shifts in transaminase levels (ALT, AST)","[5]; vs placebo, Fisher's exact p = 0.516 (ALT), p = 0.644 (AST)",No statistically significant differences; also recorded: no association was found
same,potency against various RSV clinical isolates compared with laboratory strains,[6],remained the same
same,antiviral activity EC90,[7],nanomolar concentrations
same,Subjects with any AEs,[8]; AK0529 all doses N = 49,25 (51.0%) n (%)
same,Subjects with any TEAEs,[8]; AK0529 all doses N = 49,24 (49.0%) n (%)
same,Subjects with any TEAEs induced withdrawal,[8]; AK0529 all doses N = 49,0 n (%)
same,Subjects with any TEAEs leading to death,[8]; AK0529 all doses N = 49,0 n (%)
same,Subjects with any drug related TEAEs,[8]; AK0529 all doses N = 49,3 (6.1%) ^a n (%)
same,Subjects with any grade ≥3 TEAEs,[8]; AK0529 all doses N = 49,2 (4.1%) ^c n (%)
same,Subjects with any serious TEAEs,"[8]; AK0529 all doses N = 49, two cases of unrelated pneumonia",2 (4.1%) ^b n (%)
same,patients reporting grade ≥1 TEAEs,[8]; AK0529 group 24/49,49.0%
same,subjects with Grade 1 TEAE considered drug-related by the investigator,"[8]; AK0529 group, three subjects",6%
same,patients experiencing a serious TEAE,"[8]; AK0529 group, two of 49, none related to drug treatment",4.1%
same,withdrawals or deaths because of TEAEs,[8]; AK0529 groups,No withdrawals or deaths; also recorded: none led to death or withdrawal from the study
same,patients with grade ≥3 treatment-emergent adverse events,[8]; AK0529 groups 2/49,4.1%
same,Acute tonsillitis,[8]; [11],1 (2.0%) n (%)
same,Anemia,[8]; [11],1 (2.0%) n (%)
same,Aspartate aminotransferase increased,[8]; [11],3 (6.1%) n (%)
same,Candida infection,[8]; [11],1 (2.0%) n (%)
same,Conjunctivitis,[8]; [11],1 (2.0%) n (%)
same,Constipation,[8]; [11],0 n (%)
same,Dermatitis,[8]; [11],1 (2.0%) n (%)
same,Dermatitis diaper,[8]; [11],4 (8.2%) n (%)
same,Diarrhea,[8]; [11],2 (4.1%) n (%)
same,Epistaxis,[8]; [11],2 (4.1%) n (%)
same,Erythema of eyelid,[8]; [11],1 (2.0%) n (%)
same,Eye pruritus,[8]; [11],0 n (%)
same,Flatulence,[8]; [11],1 (2.0%) n (%)
same,Gastrointestinal inflammation,[8]; [11],1 (2.0%) n (%)
same,Hematochezia,[8]; [11],0 n (%)
same,Hepatitis,[8]; [11],2 (4.1%) n (%)
same,Hyperkalemia,[8]; [11],2 (4.1%) n (%)
same,Hyperphosphatemia,[8]; [11],1 (2.0%) n (%)
same,Impaired gastric emptying,[8]; [11],0 n (%)
same,Injection site extravasation,[8]; [11],1 (2.0%) n (%)
same,Leukocytosis,[8]; [11],1 (2.0%) n (%)
same,Metabolic acidosis,[8]; [11],1 (2.0%) n (%)
same,Nasopharyngitis,[8]; [11],1 (2.0%) n (%)
same,Oral candidiasis,[8]; [11],1 (2.0%) n (%)
same,Otitis media acute,[8]; [11],2 (4.1%) n (%)
same,Pneumonia,[8]; [11],3 (6.1%) n (%)
same,Pyrexia,[8]; [11],1 (2.0%) n (%)
same,Rash,[8]; [11],1 (2.0%) n (%)
same,Rotavirus test positive,[8]; [11],0 n (%)
same,Thrombocytosis,[8]; [11],1 (2.0%) n (%)
same,Transaminases increased,[8]; [11],2 (4.1%) n (%)
same,Upper respiratory tract infection,[8]; [11],1 (2.0%) n (%)
same,Urine ketone body present,[8]; [11],1 (2.0%) n (%)
same,Vomiting,[8]; [11],1 (2.0%) n (%)
same,Blood and lymphatic system disorders,[8]; [12],3 (6.1%) n (%)
same,Eye disorders,[8]; [12],1 (2.0%) n (%)
same,Gastrointestinal disorders,[8]; [12],5 (10.2%) n (%)
same,General disorders and administration site conditions,[8]; [12],1 (2.0%) n (%)
same,Hepatobiliary disorders,[8]; [12],2 (4.1%) n (%)
same,Infections and infestations,[8]; [12],5 (10.2%) n (%)
same,"Injury, poisoning and procedural complications",[8]; [12],1 (2.0%) n (%)
same,Investigations,[8]; [12],6 (12.2%) n (%)
same,Metabolism and nutrition disorders,[8]; [12],4 (8.2%) n (%)
same,"Respiratory, thoracic and mediastinal disorders",[8]; [12],6 (12.2%) n (%)
same,Skin and subcutaneous tissue disorders,[8]; [12],6 (12.2%) n (%)
same,overall tolerability,[8]; hospitalized RSV-infected infant patients,well tolerated
same,Bacterial infection,"[8]; human, in vivo",0 n (%)
